The results in this text go back to patent publication US11242347B2, “2-phenyl-3,4-dihydropyrrolo[2,1-Ff] [1,2,4]triazinone derivatives as phosphodiesterase inhibitors and uses thereof” (TOPADUR PHARMA AG, priority 2015, dated 2022).

Bounds are passed on as bounds.

For test [1], the system named is human pulmonary artery smooth muscle cells (hPASMC). Put plainly: Measurements of cGMP in human pulmonary artery smooth muscle cells (hPASMC). It counts as cell-based. Conditions: incubation 15 or 30 min; compared with sildenafil. Here is the method: Human Pulmonary Artery Smooth Muscle Cells (hPASMC) were purchased from Clonetics™ Lonza (Lonza, reference number CC-2581) and cultured in Clonetics' smooth muscle growth medium (Clonetics™ SmGM™-2 with BulletKit™ growth factor supplements (Lonza, reference number CC-3182) at 37° C. in 5% CO2. Culture medium was replaced each 48 hours. Cells were grown in 75 cm^2 culture plates.
48 h before the experiments, cells were trypsinized (Trypsin kit One ReagentPack™ (CC-5034), Lonza) and plated in 96 well plates precoated with collagen I at 10000 cells per well. 24 h before the experiments culture medium was replaced by serum-reduced (0.5% FBS) medium.
Measurements of intracellular cGMP were performed using the Amersham cGMP EIA System (GE Healthcare, RPN226) following the instructions of the manufacturer. The assay has a sensitivity of 2 fmol cGMP per well. Briefly, incubations were terminated by adding Amersham's lysis buffer 1 and cells left for 10 min under agitation to ensure complete lysis. cGMP in samples was then acetylated using triethylamine and acetic anhydride and determined by a competitive ELISA. The ELISA is based on the competition between acetylated cGMP in cell culture lysates and a peroxidase-labelled cGMP conjugate for limited binding sites on a cGMP specific antiserum immobilized on pre-coated 96 well MTP. cGMP was determined based on a standard curve. […]

Test [2] concerns phenylephrine-precontracted rat aortic rings. Kind of test: Isometric tension studies: relaxation of phenylephrine-precontracted rat aortic rings. Conditions: for IC40: concentration where 40% relaxation was achieved.
Protocol: After 1 week of acclimatization, rats were anesthetized. Appropriate depth of anesthesia was determined by the absence of the leg flexor response and the eyelid reflex. Then, the thorax was quickly opened by a midline incision, and the rat was sacrificed by cutting the heart and exsanguination.
Indomethacin (1 μM) was added to the saline solution.
Eligible rings were then washed several times to restore tension to the baseline level.
In some experiments, the entire length of the thoracic aorta was functionally denuded of the endothelial layer by gently scraping the luminal surface with a 1.5 mm glass rod. […] Rings were then washed several times to restore tension to the baseline level.
Indomethacin (1 μM) was added to the saline solution. […] Only vessels with at least 60% relaxation to 1 μM ACh from the tension with 300 nM were eligible.
The preparations were allowed to equilibrate for 60 min in Krebs with high glucose (25 mM) before contraction to a new single concentration of PE (300 nM).
Finally, sodium nitroprusside (0.1 mM) was added, in order to obtain maximum relaxation of arterial rings.
The amount of relaxation (percent values as means±SEM) was quantified as percent relaxation from the tension (plateau) achieved with phenylephrine.
Data are presented as mean±SEM. Statistical analysis of results has been performed by analysis of variance (ANOVA) either parametric or non-parametric (Kruskal-Wallis), followed by Bonferroni test or Dunn tests as appropriate (GraphPad Software Inc, San Diego, Calif., USA). Significance was accepted when P<0.05. Non-linear regression was conducted with GraphPad Software).
Setting [3] is: Rattus norvegicus, High Glucose (25 mM).
The mark [4] stands for this setting: Rattus norvegicus, Intact Endothelium (E+).
The mark [5] stands for this setting: Rattus norvegicus, L-NAME (100 μM).
[6] abbreviates: Rattus norvegicus, Without Endothelium.

As for `CCCOc1ccc(S(=O)(=O)N2CCC(CCO[N+](=O)[O-])CC2)cc1-c1nn2c(CCC)c(/C=N/O)c(C)c2c(=O)[nH]1` [Compound 1v, (E)-2-(1-((3-(6-((hydroxyimino)methyl)-5-methyl-4-oxo-7-propyl-3,4-dihydropyrrolo[2,1-f][1,2,4]triazin-2-yl)-4-propoxyphenyl)sulfonyl)piperidin-4-yl)ethyl nitrate], the “cGMP formation in hPASMC, activity in words” value in test [1] is “significantly higher activity as compared to the reference inhibitor sildenafil”. Besides, the IC40 is 0.66 nM in test [2] (High Glucose (25 mM)), 0.0082 nM in test [2] (Intact Endothelium (E+)), 1.412 nM in test [2] (L-NAME (100 μM)) and 7.527 nM in test [2] (Without Endothelium). In addition, the EC50 was 0.181 nM in test [2] (setting [3]), 0.0111 nM in test [2] (setting [4]), 0.267 nM in test [2] (setting [5]) and 0.218 nM in test [2] (setting [6]). The maximal effect (Emax) was found to be 64.2% in test [2] (setting [3]), 85.1% in test [2] (setting [4]), 62% in test [2] (setting [5]) and 48.7% in test [2] (setting [6]). Further, the “lower concentration for 40% relaxation related to sildenafil” value in test [2] (Without Endothelium) is given as over 130 fold; in test [2] (with L-NAME), about 68 fold; in test [2] (with high glucose), about 1250 fold; in test [2] (with intact endothelium) it was “about 24 fold”. The “more potent relaxation as compared to sildenafil (based on EC50)” value in test [2] (absence of endothelium) was “about 95 fold”; in test [2] (intact endothelium) it was “about 17 fold”; in test [2] (intact endothelium, pre-exposed to high (25 mM) glucose for 60 min), “about 110 fold”; in test [2] (presence of L-NAME) it was “about 22 fold”. In addition, the “relaxation of rat aortic rings, result in words” value in test [2] (intact endothelium (FIG. 2A)) is “more potent and effective than Sildenafil”; in test [2] (pre-exposed to high glucose (25 mM) (FIG. 2B)) it was “clearly more potent and efficacious than 1r”.
For the molecule `CCCOc1ccc(S(=O)(=O)N2CCC(CCO)CC2)cc1-c1nn2c(CCC)c(/C=N/O)c(C)c2c(=O)[nH]1` [Compound 1r, (E)-2-(5-((4-(2-hydroxyethyl)piperidin-1-yl)sulfonyl)-2-propoxyphenyl)-5-methyl-4-oxo-7-propyl-3,4-dihydropyrrolo[2,1-f][1,2,4]triazine-6-carbaldehyde oxime], the “cGMP formation in hPASMC, activity in words” value in test [1] is listed as “significantly higher activity as compared to the reference inhibitor sildenafil”. Besides, the EC50 in test [2] (High Glucose (25 mM)) came to 2.79 nM; in test [2] (Intact Endothelium (E+)), 0.0074 nM; in test [2] (L-NAME (100 μM)), 0.935 nM; in test [2] (Without Endothelium) it was 5.94 nM. The Emax is on record as 51% in test [2] (High Glucose (25 mM)), 91.9% in test [2] (Intact Endothelium (E+)), 60.4% in test [2] (L-NAME (100 μM)) and 39.8% in test [2] (Without Endothelium). The IC40 in test [2] (High Glucose (25 mM)) was 89.295 nM; in test [2] (Intact Endothelium (E+)), 0.0038 nM; in test [2] (L-NAME (100 μM)), 2.982 nM; in test [2] (Without Endothelium), over 1000 nM. Moreover, in test [2] (intact endothelium (FIG. 2A)), the “relaxation of rat aortic rings, result in words” value is “more potent and effective than Sildenafil”.

What is called EC50 is the concentration giving half of the maximal effect. Broadly, the Emax is the maximal effect, on the per cent scale that the assay sets.
